Results on 18 molecules are retold here after US20070129383A1, “Substituted 2-amino-[1,2,4]triazolo[1,5-a]pyrimidine derivative and use thereof” (priority 2003, published 2007).

The structures appear in SMILES notation.

This assay concerns MHC class I expression of T1 cell (human lymphoma line 174×CEM.). The experiment in a line: Effect on MHC class I expression of T1 cell (flow cytometry, MFI). Format: cell-based. Conditions: 72 h, concentration inhibiting MHC class I molecule expression level by 20%, T1 cells, three days incubation, read-out: EC20. The method, then:
T1 cells (5.7×10^3 cells/200 μL/well) were incubated using a 96-well flat bottom microplate in RPMI1640 culture medium (Iwaki Glass Corporation) containing 10% bovine serum (hereinafter referred to as FBS; Iruvine Scientific) in the presence of a test compound of each concentration diluted from 400 μM by a common ratio of root 10 at 37° C. in an incubator containing 5% carbon dioxide concentration for three days. After incubation, cells were stained with fluoroisothiocyanate labeled mouse antihuman MHC class I monoclonal antibody (antibody produced by cell strain W6/32 (ATCC No, CRL1991). Mean fluorescence intensity (hereinafter referred to as MFI) of stained cells was measured with flow cytometry FACScan (BD), and this was assumed as MHC class I molecule expression level. Concentrations of the test compounds which inhibited the expression level of MHC class I molecule by 20% (EC20 value) were calculated from the following Expression (1), which are shown in Table 1. [formula]
A general note: In flow cytometry, cells or beads pass a laser one at a time.

`CNc1nc2nccc(-c3cccs3)n2n1` [Example 001, N-methyl-7-thiophene-[1,2,4]triazolo[1,5-a]pyrimidin-2-ylamine]: the IC20 worked out at 6 µM.
Turning to `CC(C)(C)OC(=O)Nc1nc2nccc(-c3ccccc3)n2n1` [Example 007], the IC20 was 6.25 µM.
The figure for `COc1cccc(-c2ccnc3nc(NC(=O)OC(C)(C)C)nn23)c1` [Example 008] is 7.5 µM; for `CC(C)(C)OC(=O)Nc1nc2nccc(-c3ccc([N+](=O)[O-])cc3)n2n1` [Example 009] it is 7.2 µM.
The figure for `CC(=O)C1CC(CC(=O)Nc2nc3nccc(-c4cccs4)n3n2)C1(C)C` (stereo not drawn) [Example 013] is 8.2 µM; for `CC(C)=CC(=O)Nc1nc2nccc(-c3cccs3)n2n1` [Example 015] it is 9.2 µM; for `O=C(CC1CCCC1)Nc1nc2nccc(-c3cccs3)n2n1` [Example 016] it is 9.7 µM.
For the molecule `O=C(/C=C\Sc1ccccc1)Nc1nc2nccc(-c3cccs3)n2n1` [Example 020], the IC20 turned out to be 5.3 µM.
For the molecule `O=C(CCS(=O)(=O)c1ccccc1)Nc1nc2nccc(-c3cccs3)n2n1` [Example 022, 3-benzenesulfonyl-N-(7-thiophene[1,2,4]triazolo[1,5-a]pyrimidin-2-yl)propionamide], the IC20 turned out to be 8.2 µM.
The figure for `O=C(Nc1nc2nccc(-c3cccs3)n2n1)C1C2CC3C(C2=O)C31` (stereo not drawn) [Example 026] is 8.8 µM; for `CC1(C)CC(=O)C=C(C(=O)Nc2nc3nccc(-c4cccs4)n3n2)O1` [Example 028, 6,6-dimethyl-4-oxo-5,6-dihydro-4H-pyran-2-carboxylic acid N-(7-thiophen-2-yl-[1,2,4]triazolo[1,5-a]pyrimidin-2-yl)amide] it is 7.7 µM.
To `CC(C)(C)OC(=O)NC(CSCc1ccccc1)C(=O)Nc1nc2nccc(-c3cccs3)n2n1` (stereo not drawn) [Example 036] belongs 7.1 µM; to `CC(C)[C@H](N)C(=O)Nc1nc2nccc(-c3cccs3)n2n1` [Example 040], 8.4 µM.
To `CCC(NC(=O)OC(C)(C)C)C(=O)Nc1nc2nccc(-c3cccs3)n2n1` [Example 047, (S)-(1-(7-thiophen-2-yl-triazolo[1,5-a]-pyrimidin-2-ylcarbamoyl)propyl)carbamic acid tert-butyl ester] belongs 7.3 µM; to `COc1ccc(-c2ccnc3nc(NC(C)=O)nn23)cc1` [Example 052], 6.8 µM.
With `COc1cccc(-c2ccnc3nc(NC(=O)CCS(=O)(=O)c4ccccc4)nn23)c1` [Example 054, 3-benzenesulfonyl-N-(7-(3-methoxyphenyl)-[1,2,4]triazolo[1,5-a]pyrimidin-2-yl)propionamide], the IC20 worked out at 4 µM.
The figure for `O=C(CCS(=O)(=O)c1ccccc1)Nc1nc2nccc(-c3ccccc3)n2n1` [Example 055] is 1.6 µM.
To `COc1ccc(-c2ccnc3nc(NC(=O)CCS(=O)(=O)c4ccccc4)nn23)cc1` [Example 056, 3-benzenesulfonyl-N-(7-(4-methoxyphenyl)-[1,2,4]triazolo[1,5-a]pyrimidin-2-yl)propionamide] belongs 0.74 µM.
